Reference: the supplement of paper PMC10307832

Columns and labels:
Experiment in all cases: relative viability (nuclei count vs DMSO), 5 days (fraction); higher = more cells survive
[1] = compound: C1=CC(=CC=C1NC(=S)NNC2=C(C=C(C=C2[N+](=O)[O-])C(F)(F)F)[N+](=O)[O-])F [Kobe2602] + COc1cccc2cc(-c3nc([C@H]4CC[C@H](C(=O)O)CC4)n4ncnc(N)c34)[nH]c12 [OSI-027] (partner 0.5 µM)
Outline: (§1)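 Lung cancer cell lines, seeded in 1536-well plates, were treated the following day by pin tool with a single drug or with five library-drug doses (not always all listed) in √10 steps on top of a fixed anchor-drug dose. Cells were fixed and nuclei stained in one step after 5 days, and nuclei were counted. Relative viability is the nuclei count for treated wells divided by that for vehicle wells, reported as medians of duplicate plates.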

[2] = compound: C1=CC(=CC=C1NC(=S)NNC2=C(C=C(C=C2[N+](=O)[O-])C(F)(F)F)[N+](=O)[O-])F [Kobe2602] + Cc1nc(Nc2ncc(C(=O)Nc3c(C)cccc3Cl)s2)cc(N2CCN(CCO)CC2)n1 [Dasatinib] (partner 0.075 µM)
Outline: as §1

[3] = compound: COc1cc2nccc(Oc3ccc(NC(=O)C4(C(=O)Nc5ccc(F)cc5)CC4)cc3)c2cc1OC [Cabozantinib] + CC(=O)Nc1cccc(-n2c(=O)n(C3CC3)c(=O)c3c(Nc4ccc(I)cc4F)n(C)c(=O)c(C)c32)c1 [Trametinib] (partner 0.02 µM)
Outline: as §1

[4] = compound: COc1cc2nccc(Oc3ccc(NC(=O)C4(C(=O)Nc5ccc(F)cc5)CC4)cc3)c2cc1OC [Cabozantinib] + N=C(N)NC(=N)NCCc1ccccc1 [Phenformin] (partner 250 µM)
Outline: as §1

Cell Line | relative viability ([1]; first compound 0.2 µM) | relative viability ([1]; first compound 0.6325 µM) | relative viability ([1]; first compound 2 µM) | relative viability ([1]; first compound 6.325 µM) | relative viability ([1]; first compound 20 µM) | relative viability ([2]; first compound 0.2 µM) | relative viability ([2]; first compound 0.6325 µM) | relative viability ([2]; first compound 2 µM) | relative viability ([2]; first compound 6.325 µM) | relative viability ([2]; first compound 20 µM) | relative viability ([3]; first compound 0.02 µM) | relative viability ([3]; first compound 0.06325 µM) | relative viability ([3]; first compound 0.2 µM) | relative viability ([3]; first compound 0.6325 µM) | relative viability ([3]; first compound 2 µM) | relative viability ([4]; first compound 0.02 µM) | relative viability ([4]; first compound 0.06325 µM) | relative viability ([4]; first compound 0.2 µM) | relative viability ([4]; first compound 0.6325 µM) | relative viability ([4]; first compound 2 µM)
NCI-H2009 | 0.568 | 0.737 | 0.591 | 0.637 | 0.452 | 0.282 | 0.368 | 0.332 | 0.336 | 0.312 | 0.276 | 0.281 | 0.293 | 0.275 | 0.24 | 0.532 | 0.549 | 0.547 | 0.518 | 0.459
RERF-LC-KJ | 0.615 | 0.485 | 0.555 | 0.481 | 0.257 | 0.769 | 0.714 | 0.652 | 0.556 | 0.405 | 0.948 | 0.815 | 0.781 | 0.811 | 0.928 | 0.442 | 0.404 | 0.44 | 0.418 | 0.413
NCI-H358 | 0.754 | 0.872 | 0.873 | 0.672 | 0.887 | 0.176 | 0.167 | 0.209 | 0.172 | 0.186 | 0.114 | 0.138 | 0.136 | 0.139 | 0.126 | 0.283 | 0.317 | 0.231 | 0.296 | 0.337
NCI-H2085 | 0.685 | 0.898 | – | 0.677 | 0.799 | 0.262 | 0.261 | 0.24 | 0.238 | 0.23 | 0.876 | 0.6 | 0.571 | 0.463 | 0.398 | 0.749 | 0.752 | 0.595 | 0.695 | 0.616
NCI-H1792 | 0.728 | 0.732 | 0.821 | 0.5 | 0.625 | 0.691 | 0.949 | 0.894 | 0.85 | 0.787 | – | 0.483 | 0.455 | 0.417 | 0.32 | – | 0.374 | 0.37 | 0.254 | 0.251
NCI-H2405 | 0.609 | 0.616 | 0.619 | 0.727 | 0.719 | 0.24 | 0.211 | 0.215 | 0.228 | 0.228 | 0.658 | 0.666 | 0.615 | 0.59 | 0.473 | 0.335 | 0.46 | 0.484 | 0.39 | 0.418
201T | 0.815 | 0.802 | 0.764 | – | 0.603 | 0.618 | 0.59 | 0.568 | 0.497 | 0.484 | 0.71 | 0.731 | 0.686 | 0.729 | 0.727 | 0.383 | 0.451 | 0.472 | 0.438 | 0.439
NCI-H1755 | 0.748 | 0.726 | 0.685 | 0.705 | 0.747 | 0.408 | 0.407 | 0.359 | 0.408 | 0.437 | 0.816 | 0.765 | 0.795 | 0.73 | 0.718 | 0.611 | 0.624 | 0.57 | 0.644 | 0.561
NCI-H650 | 0.514 | 0.593 | 0.477 | 0.529 | 0.527 | 0.429 | 0.564 | 0.501 | 0.517 | 0.5 | 0.923 | 0.998 | 1.16 | 0.984 | 0.876 | – | 0.497 | 0.454 | 0.465 | 0.404
NCI-H1651 | 0.604 | 0.663 | 0.674 | 0.618 | 0.652 | 0.596 | 0.362 | 0.429 | 0.402 | 0.37 | 0.915 | 0.86 | 0.845 | 0.774 | 0.82 | 0.316 | 0.329 | 0.316 | 0.298 | 0.292
NCI-H1437 | 0.913 | 0.913 | 0.891 | 0.949 | 0.855 | 0.498 | 0.431 | 0.351 | 0.459 | 0.615 | 0.571 | 0.498 | 0.501 | 0.598 | 0.55 | 0.301 | 0.374 | 0.284 | 0.326 | 0.322
NCI-H1975 | 0.673 | 0.79 | 0.687 | 0.676 | 0.669 | 0.31 | 0.371 | 0.334 | 0.302 | 0.23 | 0.331 | 0.389 | 0.638 | 0.417 | 0.217 | 0.408 | 0.462 | 0.386 | 0.423 | 0.399
BEN | 0.295 | 0.293 | 0.326 | 0.282 | 0.319 | 0.322 | 0.353 | 0.395 | 0.303 | 0.324 | 0.979 | 1.08 | 0.998 | 0.982 | 0.77 | 0.251 | 0.259 | 0.284 | 0.268 | 0.274
NCI-H460 | 0.662 | 0.722 | 0.695 | 0.629 | 0.558 | 0.504 | 0.518 | 0.507 | 0.49 | 0.575 | 0.133 | 0.196 | 0.134 | 0.159 | 0.174 | 0.535 | 0.563 | 0.576 | 0.512 | 0.508
NCI-H1944 | 0.453 | 0.48 | 0.391 | 0.416 | 0.464 | 0.255 | 0.223 | 0.233 | 0.213 | 0.245 | 0.441 | 0.401 | 0.386 | 0.416 | 0.413 | 0.17 | 0.213 | 0.193 | 0.208 | 0.204
HOP-62 | 0.829 | 0.992 | 0.826 | 0.854 | 0.844 | 0.646 | 0.69 | 0.593 | 0.689 | 0.721 | 0.413 | 0.389 | 0.4 | 0.376 | 0.349 | 0.706 | 0.777 | 0.741 | 0.693 | 0.697
